In patent publication USRE47302E1 (ONYX THERAPEUTICS INC., priority 2013, dated 2019):
In brackets after ≈: the same amount, converted by molar mass. Read-outs that look alike come from different tables or passages of the source.

Experiments:
[1] = biological target: T1, proteasome subunit β5 (beta5) (Homo sapiens, UniProt P28074); test: Proteasome active-site ELISA (ProCISE), beta5, MOLT-4 lysate; type: biochemical; conditions: MOLT4 lysate, human, 1 h continuous treatment, 25° C.
T1 construct: Lysate from the human acute lymphoblastic leukemia cell line, MOLT-4; endogenous in cells; host or cells: MOLT-4
Summary of the method: (§1)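 MOLT-4 cell lysate treated 1 h at 25 °C with compound; probe-bound subunits denatured, pulled down on streptavidin beads and detected with subunit-specific antibodies plus HRP chemiluminescence.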

[2] = biological target: T2, immunoproteasome subunit LMP7 (Homo sapiens, UniProt P28062); test: Proteasome active-site ELISA (ProCISE), LMP7, MOLT-4 lysate; type: biochemical
T2 construct: Lysate from the human acute lymphoblastic leukemia cell line, MOLT-4; endogenous in cells; host or cells: MOLT-4
Summary of the method: as §1

Solubility pH 7 = conditions: pH 7, aqueous buffer
[3] = MOLT4 lysate, 1 h continuous treatment, 25° C.
[4] = read-out: ProCISE beta5 MOLT4 lysate Hu 1 h CONT: IC50
[5] = read-out: ProCISE LMP7 MOLT4 lysate Hu 1 h CONT: IC50, 1 h continuous treatment, 25° C.

SMILES | IC50 [1] | IC50 [2, 3] | solubility (Solubility pH 7) | IC50 [1, 4] | IC50 [2, 5]
COc1ccc([C@@H](O)[C@H](NC(=O)[C@H](CO)NC(=O)CN2CCOCC2)C(=O)N[C@@H](CC2=CCCCC2)C(=O)[C@@]2(C)CO2)cc1 [Compound C-1116, (2S,3R)-N-((S)-3-(Cyclohex-1-en-1-yl)-1-((R)-2-methyloxiran-2-yl)-1-oxopropan-2-yl)-3-hydroxy-2-((S)-3-hydroxy-2-(2-morpholinoacetamido)propanamido)-3-(4-methoxyphenyl)propanamide] | 2.94 µM | 0.0506 µM | 8.23 mg/mL (≈ 13.3 mM) | – | –
Cc1ccc(C[C@H](NC(=O)[C@H](C)NC(=O)CN2CCOCC2)C(=O)N[C@@H](CC2CCCC2)C(=O)[C@@]2(C)CO2)cc1O [Compound C-1117, (S)-N-((S)-3-Cyclopentyl-1-((R)-2-methyloxiran-2-yl)-1-oxopropan-2-yl)-3-(3-hydroxy-4-methylphenyl)-2-((S)-2-(2-morpholinoacetamido)propanamido)propanamide] | 1.1 µM | 0.101 µM | 1.56 mg/mL (≈ 2.73 mM) | – | –
COc1ccc(C[C@H](NC(=O)[C@H](C)NC(=O)CN2CCC(O)CC2)C(=O)N[C@@H](CC2=CCCC2)C(=O)[C@@]2(C)CO2)cc1 [Compound C-1118, (S)-N-((S)-3-(Cyclopent-1-en-1-yl)-1-((R)-2-methyloxiran-2-yl)-1-oxopropan-2-yl)-2-((S)-2-(2-(4-hydroxypiperidin-1-yl)acetamido)propanamido)-3-(4-methoxyphenyl)propanamide] | 0.407 µM | 0.0438 µM | 6.26 mg/mL (≈ 10.7 mM) | – | –
C[C@H](NC(=O)CN1CCOCC1)C(=O)N[C@@H](Cc1cc[n+]([O-])cc1)C(=O)N[C@@H](CC1CCCC1)C(=O)[C@@]1(C)CO1 [Compound C-1119, 4-((S)-3-(((S)-3-cyclopentyl-1-((R)-2-methyloxiran-2-yl)-1-oxopropan-2-yl)amino)-2-((S)-2-(2-morpholinoacetamido)propanamido)-3-oxopropyl)pyridine 1-oxide] | 1.39 µM | 0.833 µM | 10.6 mg/mL (≈ 18.9 mM) | – | –
C[C@H](NC(=O)CN1CCOCC1)C(=O)N[C@@H](Cc1ccc(S(C)(=O)=O)cc1)C(=O)N[C@@H](CC1=CCCC1)C(=O)[C@@]1(C)CO1 [Compound C-1125, (S)-N-((S)-3-(cyclopent-1-en-1-yl)-1-((R)-2-methyloxiran-2-yl)-1-oxopropan-2-yl)-3-(4-(methylsulfonyl)phenyl)-2-((S)-2-(2-morpholinoacetamido)propanamido)propanamide] | 0.566 µM | 0.0976 µM | 7.72 mg/mL (≈ 12.5 mM) | – | –
COc1ccc(C[C@H](NC(=O)[C@H](C)NC(=O)CN2CCS(=O)(=O)CC2)C(=O)N[C@@H](CC2=CCCCC2)C(=O)[C@@]2(C)CO2)cc1 [Compound C-1127, (S)-N-((S)-3-(cyclohex-1-en-1-yl)-1-((R)-2-methyloxiran-2-yl)-1-oxopropan-2-yl)-2-((S)-2-(2-(1,1-dioxidothiomorpholino)acetamido)propanamido)-3-(4-methoxyphenyl) propanamide] | 4.17 µM | 0.315 µM | 1.52 mg/mL (≈ 2.4 mM) | – | –
Cc1ccc(C[C@H](NC(=O)[C@H](C)NC(=O)CN2CCOCC2)C(=O)N[C@@H](CC2=CCCC2)C(=O)[C@@]2(C)CO2)cc1O [Compound C-1129, (S)-N-((S)-3-(cyclopent-1-en-1-yl)-1-((R)-2-methyloxiran-2-yl)-1-oxopropan-2-yl)-3-(3-hydroxy-4-methylphenyl)-2-((S)-2-(2-morpholinoacetamido)propanamido) propanamide] | 0.793 µM | 0.0764 µM | 1.76 mg/mL (≈ 3.08 mM) | – | –
COc1ccc(C[C@H](NC(=O)[C@H](CC#N)NC(=O)CN2CCOCC2)C(=O)N[C@@H](CC2=CCCC2)C(=O)[C@@]2(C)CO2)cc1 [Compound C-1135, (S)-3-Cyano-N-((S)-1-(((S)-3-(cyclopent-1-en-1-yl)-1-((R)-2-methyloxiran-2-yl)-1-oxopropan-2-yl)amino)-3-(4-methoxyphenyl)-1-oxopropan-2-yl)-2-(2-morpholinoacetamido)propanamide] | 0.289 µM | 0.031 µM | 1.86 mg/mL (≈ 3.13 mM) | – | –
CCc1ccc(C[C@H](NC(=O)[C@H](C)NC(=O)CN2CCOCC2)C(=O)N[C@@H](CC2=CCCC2)C(=O)[C@@]2(C)CO2)cc1O [Compound C-1136, (S)-N-((S)-3-(cyclopent-1-en-1-yl)-1-((R)-2-methyloxiran-2-yl)-1-oxopropan-2-yl)-3-(4-ethyl-3-hydroxyphenyl)-2-((S)-2-(2-morpholinoacetamido)propanamido)propanamide] | 0.402 µM | 0.0462 µM | 0.0544 mg/mL (≈ 0.093 mM) | – | –
COc1ccc(C[C@H](NC(=O)[C@@H](NC(=O)CN2CCOCC2)C2COC2)C(=O)N[C@@H](CC2=CCCCC2)C(=O)[C@@]2(C)CO2)cc1 [Compound C-1138, (S)-N-((S)-3-(Cyclohex-1-en-1-yl)-1-((R)-2-methyloxiran-2-yl)-1-oxopropan-2-yl)-3-(4-methoxyphenyl)-2-((S)-2-(2-morpholinoacetamido)-2-(oxetan-3-yl)acetamido)propanamide] | 0.409 µM | 0.0453 µM | 2.35 mg/mL (≈ 3.75 mM) | – | –
COc1ccc([C@@H](O)[C@H](NC(=O)[C@H](CO)NC(=O)CN2CCOCC2)C(=O)N[C@@H](CC2=CCCC2)C(=O)[C@@]2(C)CO2)cc1 [Compound C-1144, (2S,3R)-N-((S)-3-(cyclopent-1-en-1-yl)-1-((R)-2-methyloxiran-2-yl)-1-oxopropan-2-yl)-3-hydroxy-2-((S)-3-hydroxy-2-(2-morpholinoacetamido)propanamido)-3-(4-methoxyphenyl)propanamide] | 0.266 µM | 0.0201 µM | > 10 mg/mL | – | –
COc1ccc(C[C@H](NC(=O)[C@@H](CO)NC(=O)CN2CCOCC2)C(=O)N[C@@H](Cc2ccccc2)C(=O)[C@@]2(C)CO2)cc1 [Compound C-1158] | – | – | 3.03 mg/mL (≈ 5.08 mM) | 0.874 µM | 0.161 µM
COc1ccc(C[C@H](NC(=O)[C@H](C)NC(=O)[C@H]2CCCN2C)C(=O)N[C@@H](Cc2ccccc2)C(=O)[C@@]2(C)CO2)cc1 [Compound C-1164] | – | – | 2.67 mg/mL (≈ 4.72 mM) | 0.581 µM | 0.0821 µM
COc1ccc(C[C@H](NC(=O)[C@H](C)NC(=O)[C@H]2CCCO2)C(=O)N[C@@H](Cc2ccccc2)C(=O)[C@@]2(C)CO2)cc1 [Compound C-1166, (R)-N-((S)-1-(((S)-3-(4-methoxyphenyl)-1-(((S)-1-((R)-2-methyloxiran-2-yl)-1-oxo-3-phenylpropan-2-yl)amino)-1-oxopropan-2-yl)amino)-1-oxopropan-2-yl)tetrahydrofuran-2-carboxamide] | 0.961 µM | 0.36 µM | 0.536 mg/mL (≈ 0.971 mM) | – | –
COc1ccc(C[C@H](NC(=O)[C@H](C)NC(=O)[C@@H]2CCCO2)C(=O)N[C@@H](Cc2ccccc2)C(=O)[C@@]2(C)CO2)cc1 [Compound C-1167, (S)-N-((S)-1-(((S)-3-(4-methoxyphenyl)-1-(((S)-1-((R)-2-methyloxiran-2-yl)-1-oxo-3-phenylpropan-2-yl)amino)-1-oxopropan-2-yl)amino)-1-oxopropan-2-yl)tetrahydrofuran-2-carboxamide] | 0.526 µM | 0.155 µM | 0.79 mg/mL (≈ 1.43 mM) | – | –
COc1ccc(C[C@H](NC(=O)[C@H](C)NC(=O)CC2COC2)C(=O)N[C@@H](Cc2ccccc2)C(=O)[C@@]2(C)CO2)cc1 [Compound C-1179] | – | – | 1.3 mg/mL (≈ 2.35 mM) | 0.526 µM | 0.119 µM
